These results are taken from ChEMBL document CHEMBL4118183, “Lipophilic methylene blue analogues enhance mitochondrial function and increase frataxin levels in a cellular model of Friedreich's ataxia” (Bioorg Med Chem, 2018).

Active and inactive are the calls of the source. The rule behind the calls is not given here.

Series [1] can be described thus: Cytotoxicity against human Friedreich's ataxia lymphocytes assessed as cell viability by measuring dead cells at 250 nM after 48 hrs by calceinAM ester/ethidium homodimer-1 staining based flow cytometry (reference value: 10.6%). To be noted: friedreich's ataxia lymphocyte, 0.25 µM.
For series [2], the system named is Friedreich's ataxia lymphocyte. Description: Increase in total ATP levels in human Friedreich's ataxia lymphocytes at 2.5 uM after 24 hrs by bioluminescence assay. The class given is functional, cell-based.
For series [3], the system named is Friedreich's ataxia lymphocyte. In words: Increase in total ATP levels in human Friedreich's ataxia lymphocytes at 0.1 to 0.5 uM after 24 hrs by bioluminescence assay. The class given is functional, cell-based.
Series [4] deals with Friedreich's ataxia lymphocyte. In words: Inhibition of DEM-induced ROS production in human Friedreich's ataxia lymphocytes incubated for 16 hrs followed by DEM treatment for 80 mins by DCFH-DA dye based flow cytometry. It counts as functional, cell-based. (Flow cytometry measures light scatter and fluorescence of single cells or particles in a stream.)
Series [5] can be described thus: Cytotoxicity against human Friedreich's ataxia lymphocytes assessed as cell viability by measuring live cells at 250 nM after 24 hrs by calceinAM ester/ethidium homodimer-1 staining based flow cytometry (reference value: 88.2%). More on the design: species or system Friedreich's ataxia lymphocyte. To be noted: read-out: Activity.
A short description of series [6]: Induction of inner mitochondrial membrane potential depolarization in human Friedreich's ataxia lymphocytes assessed as JC-1 monomers at 250 nM after 16 hrs by JC1-staining based flow cytometry (reference value: 17.3%). It counts as functional, Friedreich's ataxia lymphocyte.
The next series is filed under the species Mus musculus. Description: Substrate activity at NADH-ubiquinone oxidoreductase in mouse liver mitochondrial membrane fractions assessed as induction of electron flow from complex-1 by measuring NADH oxidation at 5 uM after 5 mins in presence of complex 1 blocker rotenone at 0.1 uM using NADH and coenzyme Q1. It counts as cell membranes.
A short description of series [7]: Cytotoxicity against human Friedreich's ataxia lymphocytes assessed as cell viability by measuring live cells at 250 nM after 48 hrs by calceinAM ester/ethidium homodimer-1 staining based flow cytometry (reference value: 89.3%). More on the design: species or system Friedreich's ataxia lymphocyte. The conditions noted are these: read-out: Activity.
Series [8] is described as follows: Induction of inner mitochondrial membrane potential depolarization in human Friedreich's ataxia lymphocytes assessed as JC-1 monomers at 2500 nM after 16 hrs by JC1-staining based flow cytometry (reference value: 17.3%). The class given is functional, Friedreich's ataxia lymphocyte.
Series [9] concerns Friedreich's ataxia lymphocyte. In words: Restoration of total aconitase activity in FRDA patient derived Friedreich's ataxia lymphocytes at 50 to 250 nM after 5 days by colorimetric assay. The class given is functional, cell-based. To be noted: Homo sapiens.
Series [10] has as its system Friedreich's ataxia lymphocyte. In words: Increase in frataxin protein expression levels in FRDA patient derived Friedreich's ataxia lymphocytes at 250 nM after 24 to 48 hrs by ELISA. It counts as functional. To be noted: Homo sapiens.
Series [11] can be described thus: Induction of mitochondrial biogenesis in FRDA patient derived Friedreich's ataxia lymphocytes assessed as increase in COX-1/SDH-A protein levels at 50 nM after 24 to 48 hrs by ELISA relative to control. The class given is functional, Homo sapiens, Friedreich's ataxia lymphocyte. Background: An ELISA detects its analyte on a solid surface through an enzyme-linked reagent.

Series [12] deals with Friedreich's ataxia lymphocyte. In words: Induction of mitochondrial biogenesis in FRDA patient derived Friedreich's ataxia lymphocytes assessed as increase in COX-1/SDH-A protein levels at 250 nM after 24 to 48 hrs by ELISA. It counts as functional. The conditions noted are these: Homo sapiens.
Series [13] can be described thus: Cytotoxicity against human Friedreich's ataxia lymphocytes assessed as cell viability by measuring dead cells at 2500 nM after 48 hrs by calceinAM ester/ethidium homodimer-1 staining based flow cytometry (reference value: 10.6%). To be noted: friedreich's ataxia lymphocyte, 2.5 µM.
Series [14] can be described thus: Induction of inner mitochondrial membrane potential depolarization in human Friedreich's ataxia lymphocytes assessed as JC-1 aggregates at 2500 nM after 16 hrs by JC1-staining based flow cytometry (reference value: 83%). It counts as functional, Friedreich's ataxia lymphocyte.
Series [15] can be described thus: Cytotoxicity against human Friedreich's ataxia lymphocytes assessed as cell viability by measuring dead cells at 250 nM after 24 hrs by calceinAM ester/ethidium homodimer-1 staining based flow cytometry (reference value: 11.2%). To be noted: friedreich's ataxia lymphocyte, 0.25 µM.
The species named for series [16] is Homo sapiens. In words: Cytoprotective activity against BSO-treated human Friedreich's ataxia fibroblasts assessed as increase in cell viability at 25 to 50 nM incubated overnight followed by BSO addition measured after 48 hrs by calceinAM ester/ethidium homodimer-1 staining based flow cytometry. It counts as functional.
Series [17] relates to Friedreich's ataxia lymphocyte. In words: Cytoprotective activity against rotenone-induced cytotoxicity in human Friedreich's ataxia lymphocytes assessed as increase in cell viability at 250 to 2500 nM preincubated for 12 hrs followed by complex 1 inhibitor rotenone addition measured after 16 hrs by calceinAM ester/ethidium homodimer-1 staining based flow cytometry. The class given is functional.

A short description of series [18]: Cytotoxicity against human Friedreich's ataxia lymphocytes assessed as cell viability by measuring live cells at 2500 nM after 24 hrs by calceinAM ester/ethidium homodimer-1 staining based flow cytometry (reference value: 88.2%). More on the design: species or system Friedreich's ataxia lymphocyte. To be noted: read-out: Activity.
A short description of series [19]: (§1) Cytoprotective activity against BSO-treated human Friedreich's ataxia fibroblasts assessed as increase in cell viability incubated overnight followed by BSO addition measured after 48 hrs by calceinAM ester/ethidium homodimer-1 staining based flow cytometry. It counts as functional.
Series [20] is filed under the species Homo sapiens. The description is as §1. The class given is functional.
A short description of series [21]: Increase in frataxin protein expression levels in FRDA patient derived Friedreich's ataxia lymphocytes at 50 nM after 24 to 48 hrs by ELISA relative to control. The class given is functional, Homo sapiens, Friedreich's ataxia lymphocyte.
Series [22] can be described thus: Induction of inner mitochondrial membrane potential depolarization in human Friedreich's ataxia lymphocytes assessed as JC-1 aggregates at 250 nM after 16 hrs by JC1-staining based flow cytometry (reference value: 83%). The class given is functional, Friedreich's ataxia lymphocyte.
A short description of series [23]: Cytotoxicity against human Friedreich's ataxia lymphocytes assessed as cell viability by measuring live cells at 2500 nM after 48 hrs by calceinAM ester/ethidium homodimer-1 staining based flow cytometry (reference value: 89.3%). Also on record: species or system Friedreich's ataxia lymphocyte. The conditions noted are these: read-out: Activity.
The nature of series [24]: Cytotoxicity against human Friedreich's ataxia lymphocytes assessed as cell viability by measuring dead cells at 2500 nM after 24 hrs by calceinAM ester/ethidium homodimer-1 staining based flow cytometry (reference value: 11.2%). To be noted: friedreich's ataxia lymphocyte, 2.5 µM.
In series [25] the test system is Friedreich's ataxia lymphocyte. Description: Increase in total ATP levels in human Friedreich's ataxia lymphocytes at 0.1 uM after 24 hrs by bioluminescence assay. It counts as functional, cell-based.
Series [26] concerns Friedreich's ataxia lymphocyte. In words: Increase in total ATP levels in human Friedreich's ataxia lymphocytes at 0.5 to 2.5 uM after 24 hrs by bioluminescence assay. It counts as functional, cell-based.

Regarding `CCCCCCCCCCCCCCCCc1cc2nc3ccc(N(C)C)cc3sc-2cc1=[N+](C)C.[I-]`, the Activity was 10.5% in series [1]; 18.2% in [6]; 23.3% in series [8]; “>=15%” in series [11]; 18.6% in series [13]; 77% in series [14]. Moreover, the Activity is 8.4% in [15]; “Dose-dependent effect” in the series filed under Homo sapiens [20]; “>=10%” in series [21]; 82.1% in series [22]; 13% in [24]. The outcome in series [2], in series [10] and in series [12] was inactive. Moreover, the result (in [3]; in the series listed under Mus musculus; in series [9]; in the series listed under Homo sapiens [16]; in series [17]) was Active. Moreover, the inhibition result in series [4] is “Dose-dependent effect”. In addition, the viability at 24 h, 0.25 µM in [5] is 91.4%. In addition, the viability at 48 h, 0.25 µM in [7] is 89.4%. Moreover, the viability at 24 h, 2.5 µM in series [18] was 87%. Moreover, in [19], the EC50 is 29 nM. Further, in series [23], the viability at 48 h, 2.5 µM is 81.2%.
As to `CCCCCCCCCCCCCCCc1cc2nc3ccc(N(C)C)cc3sc-2cc1=[N+](C)C.[I-]`, the result (in series [25]; in the series listed under Homo sapiens [16]; in [17]) was Active. For the same compound, the Activity in series [1] is listed as 14.5%; in [6] it was 14.2%; in series [8], 28.4%; in series [11], “>=15%”; in series [13], 31.2%; in [14], 73%. Also, the Activity in series [15] was 10.3%; in the series listed under Homo sapiens [20] it was “Dose-dependent effect”; in [21], “>=10%”; in [22], 86.2%; in series [24], 21.4%. Besides, the inhibition entry in [4] is “Dose-dependent effect”. Moreover, the viability at 24 h, 0.25 µM in series [5] is 89.4%. Further, in series [7], the viability at 48 h, 0.25 µM is 85.4%. Also, the outcome in [26], in series [10] and in series [12] was inactive. In addition, the viability at 24 h, 2.5 µM in series [18] is 78.2%. The EC50 in series [19] is 31 nM. Further, the viability at 48 h, 2.5 µM in series [23] was 68.7%.

The EC50 is the concentration that produces a half-maximal response.
